Test results: patent US12617779B2, “Self degradation-type CDK9 inhibitor prodrug and liposome encapsulating same” (Sumitomo Pharma Co., Ltd., priority 2021, dated 2026)
Structures can show the parent of a compound that is named as a salt.

Key:
[1] = Stability evaluation of liposome formulation under storage conditions (Experimental Example 5); type: physicochemical; conditions: for Alvocidib content % in liposome formulation: liposome formulation stored at 5° C.; for Change of Alvocidib content in liposome formulation: 5° C.
Experimental: For Example 1, Example 2, Example 5, Example 6, Example 7, Example 8, Comparative Example 7 and Comparative Example 9, the storage stability of liposome formulation was evaluated by the following method.
For the liposome formulations of Example 1, Example 2, Example 5, Example 6, Example 7, Example 8, Comparative Example 7, and Comparative Example 9, the liposome outer solution was replaced with 10% sucrose solution or 10 mM tartrate buffer solution/10% sucrose solution (pH 4) using Sephadex G-25 column (PD-10, manufactured by GE Healthcare) or a dialysis cassette (Slide-A-Lyzer G2 Dialysis Cassettes 20K MWCO, manufactured by Thermo Scientific) to remove unencapsulated compound. The liposome formulation was filtered through a 0.22 μm membrane filter, and stored at 5° C. After 0 to 18 months, the Alvocidib content in the liposome formulations of Example 1, Example 2, Example 5, Example 6, Example 7, Example 8, Comparative Example 7 and Comparative Example 9 was determined by HPLC.
The HPLC measurement conditions are as follows.

[2] = Stability evaluation of solution formulation (Experimental Example 2); type: physicochemical; conditions: for Stability / conversion to Alvocidib in solution formulation at pH 3: pH 3, 5° C.; for Stability / conversion to Alvocidib in solution formulation at pH 3 / Stability / conversion to Alvocidib in solution formulation at pH 4: up to 4 weeks; for Stability / conversion to Alvocidib in solution formulation at pH 4: pH 4, 5° C.
Experimental: For Example 1, Example 2, Example 5, Example 6, Comparative Example 13 and Comparative Example 14, the attrition rate of the test compound and the conversion rate of the test compound to Alvocidib in a solution formulation were calculated by the following method.
Example 1, Example 2, Example 5, Example 6, Comparative Example 13 and Comparative Example 14 were each added to buffer solutions adjusted to pH 3.0, 4.0 and 5.0, respectively, at a concentration of 0.1 mg/mL, and left at 5° C. After 0, 1, 2 and 4 weeks, the residual rates of the compounds of Example 1, Example 2, […], Comparative Example 13 and Comparative Example 14 and the production rate of Alvocidib were determined by HPLC.
The buffer solutions used at each pH are as follows. • pH 3.0: 5 mM tartrate buffer solution/10% sucrose solution (pH 3.0) • pH 4.0: 5 mM tartrate buffer solution/10% sucrose solution (pH 4.0) • pH 5.0: 5 mM tartrate buffer solution/10% sucrose solution (pH 5.0)
The measurement conditions for HPLC are as follows.
• column: Acquity UPLC BEH C18, 1.7 um, 50×2.1 mm • column temperature: 40° C. • mobile phase: • A: water containing 0.1% trifluoroacetic acid • B: acetonitrile • A/B (min): • 80/20(0)→75/25(3)→0/100(3.5)→0/100(4)→80/20(4.01)→80/20(5) • flow rate: 0.8 mL/min • detection: ultraviolet visible detector, measurement wavelength 254 nm • injection: 3 μL

A673 cells = assay: Drug efficacy evaluation test using tumor-bearing mice transplanted with A673 cells (Experimental Example 8); type: in vivo, BALB/c mice; conditions: liposome formulation, tail vein, 50 mg/kg twice a week
Experimental: The liposome formulation encapsulating the compound of the present disclosure was treated and evaluated for anti-tumor effect and weight loss.
The liposome formulations were prepared as follows. The liposomes encapsulating the compounds of Example 1, Example 2, Example 5 and Example 6 were prepared in the same manner as in Experimental Example 4, respectively. The liposome outer solution was replaced with 10 mM tartrate buffer solution/10% sucrose solution (pH4.0) using a dialysis cassette (Slide-A-Lyzer G2 Dialysis Cassettes 20K MWCO, manufactured by Thermo Scientific), followed by filtration through a 0.22 μm membrane filter.
A673 cells (ATCC) were intradermally transplanted into 5-week-old BALB/c mice (CAnN.Cg-Foxnlnu/CrlCrlj, female, Charles River, Japan) around the ventral region at 3×10^6 cells/mouse. After confirming the engraftment of A673 cells 6 days after transplantation, they were divided into groups based on tumor diameter and body weight, and liposome formulations encapsulating Example 1, Example 2, Example 5 and Example 6 were administered through the tail vein at dose of 50 mg/kg twice a week, respectively. […] The tumor volume was measured over time from the start of administration, and the tumor volume reduction effect due to compound administration was evaluated. The tumor volume was calculated by the following formula using the short and long diameters of the tumor measured with an electronic caliper (Mitutoyo). For comparison in this test, an empty liposome solution prepared in the same manner as in Experimental Example 1 was used.
The anti-tumor effect was evaluated by comparing the control group administered with the empty liposome solution and the administration group of the compound of the present disclosure, and calculating T/C by the following formula.

[3] = solution formulation, pH3.0, 0 week
[4] = solution formulation, pH3.0, 1 week
[5] = solution formulation, pH3.0, 2 week
[6] = solution formulation, pH3.0, 4 week
[7] = solution formulation, pH4.0, 0 week
[8] = solution formulation, pH4.0, 1 week
[9] = solution formulation, pH4.0, 2 week
[10] = solution formulation, pH4.0, 4 week
[11] = solution formulation, pH5.0, 0 week
[12] = solution formulation, pH5.0, 1 week
[13] = solution formulation, pH5.0, 2 week
[14] = solution formulation, pH5.0, 4 week

C[C@H](N)C(=O)O[C@@H]1CN(C)CC[C@@H]1c1c(O)cc(O)c2c(=O)cc(-c3ccccc3Cl)oc12 [Comparative Example 7, reference compound]
Alvocidib content % in liposome formulation ([1]; 0 month): 0.56% | Alvocidib content % in liposome formulation ([1]; 7 months): 23.2% | Change of Alvocidib content in liposome formulation ([1]; at 6 to 7 months): significant increase

CN1CC[C@H](c2c(O)cc(O)c3c(=O)cc(-c4ccccc4Cl)oc23)[C@H](OC(=O)[C@@H](N)CO)C1 [Comparative Example 9, reference compound]
Alvocidib content % in liposome formulation ([1]; 0 month): 1.17% | Alvocidib content % in liposome formulation ([1]; 6 months): 27.2% | Change of Alvocidib content in liposome formulation ([1]; at 6 to 7 months): significant increase

CCN(C[C@@H]1CCCCN1)C(=O)Oc1cc(O)c2c(=O)cc(-c3ccccc3Cl)oc2c1[C@H]1CCN(C)C[C@H]1O [Example 1, 2-(2-chlorophenyl)-5-hydroxy-8-[(3S,4R)-3-hydroxy-1-methylpiperidin-4-yl]-4-oxo-4H-1-benzopyran-7-yl ethyl{[(2S)-piperidin-2-yl]methyl}carbamate ditrifluoroacetate]
Stability / conversion to Alvocidib in solution formulation at pH 3 [2]: stable | Stability / conversion to Alvocidib in solution formulation at pH 4 [2]: stable | Residual rate ([2]; solution formulation pH3.0, 0 week, 5° C., 0.1 mg/mL): 99.2% | Residual rate ([2]; solution formulation pH3.0, 1 week, 5° C., 0.1 mg/mL): 99.2% | Residual rate ([2]; solution formulation pH3.0, 2 weeks, 5° C., 0.1 mg/mL): 99.0% | Residual rate ([2]; solution formulation pH3.0, 4 weeks, 5° C., 0.1 mg/mL): 99.0% | Residual rate ([2]; solution formulation pH4.0, 0 week, 5° C., 0.1 mg/mL): 99.5% | Residual rate ([2]; solution formulation pH4.0, 1 week, 5° C., 0.1 mg/mL): 99.3% | Residual rate ([2]; solution formulation pH4.0, 2 weeks, 5° C., 0.1 mg/mL): 99.1% | Residual rate ([2]; solution formulation pH4.0, 4 weeks, 5° C., 0.1 mg/mL): 99.1% | Residual rate ([2]; solution formulation pH5.0, 0 week, 5° C., 0.1 mg/mL): 99.4% | Residual rate ([2]; solution formulation pH5.0, 1 week, 5° C., 0.1 mg/mL): 98.5% | Residual rate ([2]; solution formulation pH5.0, 2 weeks, 5° C., 0.1 mg/mL): 97.6% | Residual rate ([2]; solution formulation pH5.0, 4 weeks, 5° C., 0.1 mg/mL): 96.5% | Production rate of Alvocidib [2, 3]: 0.0% | Production rate of Alvocidib [2, 4]: 0.0% | Production rate of Alvocidib [2, 5]: 0.1% | Production rate of Alvocidib [2, 6]: 0.1% | Production rate of Alvocidib [2, 7]: 0.0% | Production rate of Alvocidib [2, 8]: 0.1% | Production rate of Alvocidib [2, 9]: 0.2% | Production rate of Alvocidib [2, 10]: 0.4% | Production rate of Alvocidib [2, 11]: 0.1% | Production rate of Alvocidib [2, 12]: 1.2% | Production rate of Alvocidib [2, 13]: 1.9% | Production rate of Alvocidib [2, 14]: 3.2% | Effect on tumor volume (A673 cells): significantly inhibited the increase in tumor volume | Weight loss of 10% or more compared to the start of administration (A673 cells): without weight loss

CCN(C[C@H]1CCCCN1)C(=O)Oc1cc(O)c2c(=O)cc(-c3ccccc3Cl)oc2c1[C@H]1CCN(C)C[C@H]1O [Example 2, 2-(2-chlorophenyl)-5-hydroxy-8-[(3S,4R)-3-hydroxy-1-methylpiperidin-4-yl]-4-oxo-4H-1-benzopyran-7-yl ethyl{[(2R)-piperidin-2-yl]methyl}carbamate]
Stability / conversion to Alvocidib in solution formulation at pH 3 [2]: stable | Stability / conversion to Alvocidib in solution formulation at pH 4 [2]: stable | Production rate of Alvocidib [2, 3]: 0.0% | Residual rate [2, 3]: 96.5% | Production rate of Alvocidib [2, 4]: 0.0% | Residual rate [2, 4]: 96.5% | Production rate of Alvocidib [2, 5]: 0.0% | Residual rate [2, 5]: 96.4% | Production rate of Alvocidib [2, 6]: 0.1% | Residual rate [2, 6]: 96.5% | Production rate of Alvocidib [2, 7]: 0.0% | Residual rate [2, 7]: 96.4% | Production rate of Alvocidib [2, 8]: 0.1% | Residual rate [2, 8]: 96.5% | Production rate of Alvocidib [2, 9]: 0.2% | Residual rate [2, 9]: 96.4% | Production rate of Alvocidib [2, 10]: 0.3% | Residual rate [2, 10]: 96.4% | Production rate of Alvocidib [2, 11]: 0.1% | Residual rate [2, 11]: 96.4% | Production rate of Alvocidib [2, 12]: 1.1% | Residual rate [2, 12]: 95.5% | Production rate of Alvocidib [2, 13]: 1.9% | Residual rate [2, 13]: 94.5% | Production rate of Alvocidib [2, 14]: 3.1% | Residual rate [2, 14]: 93.0% | Effect on tumor volume (A673 cells): inhibited the increase in tumor volume | Weight loss of 10% or more compared to the start of administration (A673 cells): without weight loss

CCCN(C[C@@H]1CCCCN1)C(=O)Oc1cc(O)c2c(=O)cc(-c3ccccc3Cl)oc2c1[C@H]1CCN(C)C[C@H]1O [Example 5, 2-(2-chlorophenyl)-5-hydroxy-8-[(3S,4R)-3-hydroxy-1-methylpiperidin-4-yl]-4-oxo-4H-1-benzopyran-7-yl {[(2S)-piperidin-2-yl]methyl}propylcarbamate]
Stability / conversion to Alvocidib in solution formulation at pH 3 [2]: stable | Stability / conversion to Alvocidib in solution formulation at pH 4 [2]: stable | Production rate of Alvocidib [2, 3]: 0.2% | Residual rate [2, 3]: 98.2% | Production rate of Alvocidib [2, 4]: 0.2% | Residual rate [2, 4]: 98.2% | Production rate of Alvocidib [2, 5]: 0.3% | Residual rate [2, 5]: 98.1% | Production rate of Alvocidib [2, 6]: 0.3% | Residual rate [2, 6]: 98.1% | Production rate of Alvocidib [2, 7]: 0.2% | Residual rate [2, 7]: 98.2% | Production rate of Alvocidib [2, 8]: 0.3% | Residual rate [2, 8]: 98.2% | Production rate of Alvocidib [2, 9]: 0.4% | Residual rate [2, 9]: 98.1% | Production rate of Alvocidib [2, 10]: 0.5% | Residual rate [2, 10]: 98.1% | Production rate of Alvocidib [2, 11]: 0.4% | Residual rate [2, 11]: 98.1% | Production rate of Alvocidib [2, 12]: 1.2% | Residual rate [2, 12]: 97.2% | Production rate of Alvocidib [2, 13]: 2.1% | Residual rate [2, 13]: 96.6% | Production rate of Alvocidib [2, 14]: 3.7% | Residual rate [2, 14]: 95.0% | Effect on tumor volume (A673 cells): inhibited the increase in tumor volume

CCN(CC1CCCCN1)C(=O)Oc1cc(O)c2c(=O)cc(-c3ccccc3Cl)oc2c1[C@H]1CCN(C)C[C@H]1O (stereo partly drawn) [Example 7, 2-(2-chlorophenyl)-5-hydroxy-8-[(3S,4R)-3-hydroxy-1-methylpiperidin-4-yl]-4-oxo-4H-1-benzopyran-7-yl ethyl[(piperidin-2-yl)methyl]carbamate dihydrochloride]
Change of Alvocidib content in liposome formulation ([1]; after 15 months): hardly increased

CN1CC[C@H](c2c(OC(=O)N(C)CC3CCCCN3)cc(O)c3c(=O)cc(-c4ccccc4Cl)oc23)[C@H](O)C1 (stereo partly drawn) [Example 8, 2-(2-chlorophenyl)-5-hydroxy-8-[(3S,4R)-3-hydroxy-1-methylpiperidin-4-yl]-4-oxo-4H-1-benzopyran-7-yl methyl[(piperidin-2-yl)methyl]carbamate]
Change of Alvocidib content in liposome formulation ([1]; after 18 months): hardly increased
